Test results published in paper PMC13469122, “Structural and mechanistic insights into primer synthesis initiation by DNA primase” (Nature Communications, 2026).

Columns and labels:
[1] = target: T1, HBD (helix bundle domain) of pRN1 primase (Saccharolobus islandicus, UniProt Q54324); experiment: solution NMR; type: binding
T1 construct: Helix bundle domain 261-370 plus linker 256-260; residual GHM (253-255) after TEV cleavage of N-terminal His6; E. coli BL21(DE3) CodonPlus, pET28c

[2] = target: T2, primase (pRN1 primase, residues 40-370) (Saccharolobus islandicus, UniProt Q54324, H145A); experiment: solid-state hPH NMR (also NHHP, CHHP); type: binding; conditions: with DNA^CT and ATP^N, 309 K; NTP^S site
T2 construct: Catalytic domain, linker and helix bundle domain, residues 40-370; C-terminal His6 without cleavage site; E. coli BL21(DE3) CodonPlus, pET28c

[3] = target: T3, primase (pRN1 primase, residues 40-370) (Saccharolobus islandicus, UniProt Q54324); experiment: solid-state hPH NMR; type: binding; conditions: with DNA^CT; triphosphate at NTP^S site
T3 construct: Catalytic domain, linker and helix bundle domain, residues 40-370; C-terminal His6 without cleavage site; E. coli BL21(DE3) CodonPlus, pET28c

[4] = target: T4, pRN1 primase helix bundle domain (HBD) (Sulfolobus islandicus plasmid pRN1, UniProt Q54324 256-370); experiment: ITC; 1 mM dGTP, 10 mM Mg2+; Kd not printed in the material; 25 mM sodium phosphate, 50 mM NaCl, 10 mM MgCl2, pH 7.0; ITC and HBD NMR 298 K, primase NMR 313 K; conditions: protein: recombinant; tags: non-native GHM (numbered 253-255) left after TEV cleavage of N-terminal His6; single strand
T4 sequence: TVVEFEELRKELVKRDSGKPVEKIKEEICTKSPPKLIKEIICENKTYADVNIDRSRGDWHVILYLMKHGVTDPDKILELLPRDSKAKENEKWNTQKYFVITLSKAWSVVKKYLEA

pRN1 primase H145A = target: T5, pRN1 primase H145A (Sulfolobus islandicus plasmid pRN1, UniProt Q54324 40-370, H145A); experiment: NMR (solid-state hPH, NHHP, CHHP); ATPN + dGTPC; 25 mM sodium phosphate, 50 mM NaCl, 10 mM MgCl2, pH 7.0; ITC and HBD NMR 298 K, primase NMR 313 K; conditions: protein: recombinant; tags: C-terminal His6, not cleaved; single strand
T5 sequence: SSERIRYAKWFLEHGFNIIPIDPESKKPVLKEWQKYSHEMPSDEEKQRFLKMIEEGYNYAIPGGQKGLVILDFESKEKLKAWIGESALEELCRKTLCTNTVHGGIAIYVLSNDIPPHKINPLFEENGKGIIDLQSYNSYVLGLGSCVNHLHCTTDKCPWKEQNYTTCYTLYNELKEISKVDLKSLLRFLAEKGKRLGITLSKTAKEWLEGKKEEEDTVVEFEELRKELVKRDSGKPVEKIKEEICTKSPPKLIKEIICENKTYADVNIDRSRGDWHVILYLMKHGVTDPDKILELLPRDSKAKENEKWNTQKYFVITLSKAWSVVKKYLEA

T3 sequence (Q54324 entry or part of it): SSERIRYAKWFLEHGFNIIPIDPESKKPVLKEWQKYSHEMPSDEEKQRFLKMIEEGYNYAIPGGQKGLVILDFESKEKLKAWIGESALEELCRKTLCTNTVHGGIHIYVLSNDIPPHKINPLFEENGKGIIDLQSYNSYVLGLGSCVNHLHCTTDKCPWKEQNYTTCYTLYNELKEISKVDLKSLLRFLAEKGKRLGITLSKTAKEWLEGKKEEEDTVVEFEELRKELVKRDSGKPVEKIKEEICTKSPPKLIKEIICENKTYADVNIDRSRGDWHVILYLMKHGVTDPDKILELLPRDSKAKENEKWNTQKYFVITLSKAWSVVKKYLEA

## Nc1ncnc2c1ncn2[C@@H]1O[C@H](COP(=O)(O)OP(=O)(O)OP(=O)(O)O)[C@@H](O)[C@H]1O [ATP]
[1]; with DNA^CT and dGTP, NTP^W site (displaced from NTP^S site by dGTP)
  solution NMR: the second ATP remains bound at the NTP^W site without base-pairing with T2

## Nc1nc2c(ncn2[C@H]2C[C@H](O)[C@@H](COP(=O)(O)OP(=O)(O)CP(=O)(O)O)O2)c(=O)[nH]1 [dGTP^C]
[2]
  solid-state hPH NMR (also NHHP, CHHP): ATP^N binds at the NTP^W site, while dGTP^C occupies the NTP^S site

## Nc1nc2c(ncn2[C@H]2C[C@H](O)[C@@H](COP(=O)(O)O[C@H]3[C@@H](O)[C@H](n4cnc5c(N)ncnc54)O[C@@H]3COP(=O)(O)OP(=O)(O)NP(=O)(O)O)O2)c(=O)[nH]1
[3]
  solid-state hPH NMR: the solid-state hPH NMR spectrum of the primase-DNA^CT-pNHppApG complex

## Nc1nc2c(ncn2[C@H]2C[C@H](O)[C@@H](COP(=O)(O)OP(=O)(O)OP(=O)(O)O)O2)c(=O)[nH]1 [dGTP]
[1]; with DNA^CT and ATP, NTP^S site
  solution NMR: dGTP displaces ATP at the NTP^S site to base-pair with C1

B1: DNACT (ssDNA)
DNA: CTGTGCTCA
[4]
  binding signal: ~5 fold tighter GTG recognition than with ATP
pRN1 primase H145A
  binding result: binds
